# Reference: ChEMBL document CHEMBL1144307, “Design of selective phenylglycine amide tissue factor/factor VIIa inhibitors” (Bioorg Med Chem Lett, 2005)
# Tests used:
# [1] = molecular target: Coagulation factor X (Homo sapiens, UniProt P00742); assay: The value of binding constant measured against coagulation factor X (factor Xa)
# [2] = molecular target: Prothrombin (Homo sapiens, UniProt P00734); assay: The value of binding constant measured against human Thrombin
# [3] = molecular target: Serine protease 1 (Homo sapiens, UniProt P07477); assay: The value of binding constant measured against human trypsin
# Sequence of Serine protease 1 (P07477 whole entry): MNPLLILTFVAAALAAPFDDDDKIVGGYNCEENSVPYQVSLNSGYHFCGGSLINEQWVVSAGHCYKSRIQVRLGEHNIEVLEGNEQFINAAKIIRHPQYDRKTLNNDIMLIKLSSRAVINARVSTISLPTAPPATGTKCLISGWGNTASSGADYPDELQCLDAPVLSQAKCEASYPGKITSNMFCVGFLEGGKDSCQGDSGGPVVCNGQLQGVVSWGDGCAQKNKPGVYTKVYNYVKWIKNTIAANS
# [4] = molecular target: T1, Coagulation factor VII (Homo sapiens, UniProt P08709); assay: The value of binding constant measured against coagulation factor VII
# T1 sequence (P08709 whole entry): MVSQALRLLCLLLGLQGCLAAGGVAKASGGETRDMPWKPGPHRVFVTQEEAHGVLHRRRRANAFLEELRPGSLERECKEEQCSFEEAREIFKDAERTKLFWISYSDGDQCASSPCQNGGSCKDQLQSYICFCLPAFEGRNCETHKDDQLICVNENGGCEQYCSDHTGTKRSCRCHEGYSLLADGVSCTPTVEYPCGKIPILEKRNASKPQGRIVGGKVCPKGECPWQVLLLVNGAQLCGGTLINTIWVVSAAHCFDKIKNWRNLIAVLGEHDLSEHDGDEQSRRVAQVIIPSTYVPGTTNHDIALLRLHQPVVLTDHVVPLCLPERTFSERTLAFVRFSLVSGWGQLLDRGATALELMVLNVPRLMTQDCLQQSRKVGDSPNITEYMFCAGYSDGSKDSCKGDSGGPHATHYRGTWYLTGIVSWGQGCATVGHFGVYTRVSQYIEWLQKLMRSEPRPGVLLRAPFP
# Sequence of Coagulation factor X (P00742 41-179 limits assumed): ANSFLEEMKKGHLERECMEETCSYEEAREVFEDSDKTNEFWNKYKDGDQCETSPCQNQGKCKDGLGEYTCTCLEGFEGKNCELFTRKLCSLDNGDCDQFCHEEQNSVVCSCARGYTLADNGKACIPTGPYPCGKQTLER
# Sequence of Coagulation factor X (P00742 235-488 limits assumed): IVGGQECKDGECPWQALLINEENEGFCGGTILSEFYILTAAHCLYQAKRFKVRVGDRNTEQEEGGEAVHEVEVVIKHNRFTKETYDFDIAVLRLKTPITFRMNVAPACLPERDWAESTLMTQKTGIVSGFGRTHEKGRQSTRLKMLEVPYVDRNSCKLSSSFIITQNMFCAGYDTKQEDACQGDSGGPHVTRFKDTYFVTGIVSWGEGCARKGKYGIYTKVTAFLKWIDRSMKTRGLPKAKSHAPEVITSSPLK
SMILES,Ki [1],Ki [2],Ki [3],Ki [4]
COc1cc(C(Nc2ccc(C(=N)N)cc2)C(=O)NCc2ccccc2)ccc1OCc1ccccc1 (stereo unspecified),5300 nM,43 nM,210 nM,220 nM
COc1cc(CNc2ccc(C(=N)N)cc2)ccc1OCc1ccccc1,1200 nM,270 nM,580 nM,1000 nM
COc1ccc(C(Nc2ccc(C(=N)N)cc2)C(=O)NCc2ccccc2)cc1OC (stereo unspecified),30000 nM,460 nM,1700 nM,350 nM
COc1cc(CNc2ccc(C(=N)N)cc2)c(NS(C)(=O)=O)cc1OCc1ccccc1,26000 nM,1400 nM,400 nM,380 nM
CCOc1cc(C(Nc2ccc(C(=N)N)cc2)C(=O)NCc2ccccc2)ccc1OCc1ccccc1 (stereo unspecified),4500 nM,48 nM,1100 nM,130 nM
CCOc1ccc(CNc2ccc(C(=N)N)cc2)cc1OCC,39000 nM,4500 nM,2000 nM,–
CCOc1ccc(C(Nc2ccc(C(=N)N)cc2)C(=O)NCc2ccccc2)cc1OCC (stereo unspecified),19000 nM,570 nM,2000 nM,40 nM

# Results, then the compound that gave them:
Ki [1],Ki [2],Ki [3],Ki [4],SMILES
12400 nM,540 nM,50 nM,–,COc1cc([C@@H](Nc2ccc(C(=N)N)cc2)C(=O)N[C@H](C(=O)O)c2ccccc2)c(S(=O)(=O)c2ccccc2)cc1OCc1ccccc1
8000 nM,35 nM,40 nM,–,COc1cc([C@@H](Nc2ccc(C(=N)N)cc2)C(=O)N[C@H](C(=O)O)c2ccccc2)ccc1OCc1ccccc1
> 74000 nM,1700 nM,420 nM,160 nM,COc1cc(C(Nc2ccc(C(=N)N)cc2)C(=O)NCc2ccccc2)c(S(=O)(=O)c2ccccc2)cc1OCc1ccccc1 (stereo unspecified)
19000 nM,6400 nM,80 nM,7 nM,COc1cc([C@@H](Nc2ccc(C(=N)N)cc2)C(=O)N[C@H](C(=O)O)c2ccccc2)c(C(=O)Cc2ccccc2)cc1OCc1ccccc1
